Results on 17 compounds are retold here after US20170334899A1, “AMINO-SUBSTITUTED ISOTHIAZOLES” (Bayer Pharma Aktiengesellschaft, priority 2014, published 2017).

The subject of experiment [1] is human cervical tumor cell line HeLa (ATCC CCL-2). Description: SAC-Formation - Nocodazole-Induced Assay. It is filed as cell-based. The following applies: Homo sapiens, HeLa, 24 h, HeLa cells, nocodazole 0.1 μg/ml together with test compound, decrease of mitotic cells (phospho-histone H3 Ser10). The essentials:
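HeLa cells, plated overnight, were treated 24 h at 37 °C with nocodazole (0.1 μg/ml final) plus test compound (0.005–20 μM, 0.5% DMSO) added at the same time. After fixation, anti-phospho-histone H3 Ser10 and Hoechst staining gave the mitotic cell fraction by imaging. Values came from four-parameter Hill fits.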

Experiment [2] has as its target T1, catalytic domain of human Bub1 (amino acids 704-1085) (Homo sapiens, UniProt O43683).
T1 construct: catalytic domain of human Bub1 (amino acids 704-1085); His6 (N); made in house; host or cells: insect cells (Hi5)
Description: Bub1 kinase assay (TR-FRET). The following applies: 10 μM ATP, avg, read-out: Bub1 avg (IC50 [mol/l]). It is filed as biochemical. In outline: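 Readout is the 665/620 nm TR-FRET ratio from anti-phosphoserine antibody, Eu-labelled anti-mouse IgG and streptavidin-XL665, scaled between no-enzyme and uninhibited controls. Reaction: 1 μM biotinylated peptide, 10 μM ATP, 60 min, 22 °C, after 15 min compound preincubation with His6-Bub1 (704-1085, insect-expressed, ~200 ng/ml).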

T1 sequence (O43683 704-1085): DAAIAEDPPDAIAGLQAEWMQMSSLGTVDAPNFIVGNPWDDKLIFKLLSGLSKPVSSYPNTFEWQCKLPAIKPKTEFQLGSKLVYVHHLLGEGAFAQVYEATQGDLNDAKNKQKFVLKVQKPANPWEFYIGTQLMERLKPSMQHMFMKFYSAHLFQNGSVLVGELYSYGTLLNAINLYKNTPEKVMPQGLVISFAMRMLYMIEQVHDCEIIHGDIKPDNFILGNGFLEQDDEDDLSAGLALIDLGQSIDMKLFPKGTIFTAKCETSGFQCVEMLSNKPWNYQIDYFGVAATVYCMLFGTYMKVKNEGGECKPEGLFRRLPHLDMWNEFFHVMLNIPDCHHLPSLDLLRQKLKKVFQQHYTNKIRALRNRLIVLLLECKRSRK

As for `Cc1nsc(Nc2cc(C#N)ccn2)c1C(=O)Nc1ccc(Oc2cccc(C(F)(F)F)c2)nc1` [Example 230, 5-[(4-cyanopyridin-2-yl)amino]-3-methyl-N-{6-[3-(trifluoromethyl)phenoxy]pyridin-3-yl}-1,2-thiazole-4-carboxamide], the IC50 in experiment [1] is 89 nM; in experiment [2], over 20000 nM.
For the compound `Cc1nsc(Nc2cnc3ccccc3n2)c1C(=O)Nc1ccc(Oc2cccnc2)nc1` [Example 231, 3-methyl-N-[6-(pyridin-3-yloxy)pyridin-3-yl]-5-(quinoxalin-2-ylamino)-1,2-thiazole-4-carboxamide], the figures for the IC50 in experiment [1] and in experiment [2] were 58 nM and over 20000 nM, respectively.
For the compound `Cc1nsc(Nc2cnc3ccccc3n2)c1C(=O)Nc1ccc(Oc2ccc(SC(F)(F)F)cc2)nc1` [Example 233, 3-methyl-5-(quinoxalin-2-ylamino)-N-(6-{4-[(trifluoromethyl)sulfanyl]phenoxy}pyridin-3-yl)-1,2-thiazole-4-carboxamide], the IC50 was 4700 nM in experiment [1] and over 20000 nM in experiment [2].
Turning to `Cc1nsc(Nc2cnc3ccccc3n2)c1C(=O)Nc1ccc(NC2CCN(C(=O)OC(C)(C)C)CC2)nc1` [Example 234, tert-butyl 4-{[5-({[3-methyl-5-(quinoxalin-2-ylamino)-1,2-thiazol-4-yl]carbonyl}amino)pyridin-2-yl]amino}piperidine-1-carboxylate], the values for the IC50 in experiment [1] and in experiment [2] were 1000 nM and over 20000 nM, respectively.
For the compound `COc1ccc(NC(=O)c2c(C)nsc2Nc2cnc3ccccc3n2)c(CC#N)n1` [Example 235, N-[2-(cyanomethyl)-6-methoxypyridin-3-yl]-3-methyl-5-(quinoxalin-2-ylamino)-1,2-thiazole-4-carboxamide], the values for the IC50 in experiment [1] and in experiment [2] were 530 nM and over 20000 nM, respectively.
In the case of `Cc1nsc(Nc2cnc3ccccc3n2)c1C(=O)Nc1ccc(NCCC(=O)OC(C)(C)C)nc1` [Example 236, tert-butyl N-[5-({[3-methyl-5-(quinoxalin-2-ylamino)-1,2-thiazol-4-yl]carbonyl}amino)pyridin-2-yl]-beta-alaninate], the IC50 in experiment [1] is 3000 nM; in experiment [2], over 20000 nM.
Take `COC(=O)c1cc(NC(=O)c2c(C)nsc2Nc2cnc3ccccc3n2)cc(C(=O)OC)c1` [Example 237, dimethyl 5-({[3-methyl-5-(quinoxalin-2-ylamino)-1,2-thiazol-4-yl]carbonyl}amino)isophthalate]: the IC50 in experiment [1] is 580 nM; in experiment [2] it was over 20000 nM.
Turning to `Cc1nsc(Nc2cnc3ccccc3n2)c1C(=O)Nc1ccc(NCC2CCN(C(=O)OC(C)(C)C)CC2)nc1` [Example 238, tert-butyl 4-({[5-({[3-methyl-5-(quinoxalin-2-ylamino)-1,2-thiazol-4-yl]carbonyl}amino)pyridin-2-yl]amino}methyl)piperidine-1-carboxylate], the IC50 was 3500 nM in experiment [1] and over 20000 nM in experiment [2].
Turning to `Cc1nsc(Nc2cc(C#N)ccn2)c1C(=O)Nc1cccc(C(=O)OC(C)(C)C)c1` [Example 239, tert-butyl 3-[({5-[(4-cyanopyridin-2-yl)amino]-3-methyl-1,2-thiazol-4-yl}carbonyl)amino]benzoate], the IC50 in experiment [1] is 510 nM; in experiment [2], over 20000 nM.
`Cc1nsc(Nc2ccc(C#N)cn2)c1C(=O)Nc1cccc(C(=O)OC(C)(C)C)c1` [Example 240, tert-butyl 3-[({5-[(5-cyanopyridin-2-yl)amino]-3-methyl-1,2-thiazol-4-yl}carbonyl)amino]benzoate]: the IC50 in experiment [1] was 130 nM; in experiment [2], over 20000 nM.
With `Cc1nsc(Nc2cnc3ccccc3n2)c1C(=O)Nc1ccc(NC2CCCN(C(=O)OC(C)(C)C)C2)nc1` (stereo not shown) [Example 241, tert-butyl 3-{[5-({[3-methyl-5-(quinoxalin-2-ylamino)-1,2-thiazol-4-yl]carbonyl}amino)pyridin-2-yl]amino}piperidine-1-carboxylate], the IC50 was 1400 nM in experiment [1] and over 20000 nM in experiment [2].
Consider `Cc1nsc(Nc2cc(C#N)ccn2)c1C(=O)Nc1ccc(NC2CCCNC2)nc1` (stereo not shown) [Example 242, 5-[(4-cyanopyridin-2-yl)amino]-3-methyl-N-[6-(piperidin-3-ylamino)pyridin-3-yl]-1,2-thiazole-4-carboxamide], for which the IC50 in experiment [1] was 2600 nM; in experiment [2], over 20000 nM.
As for `Cc1cc(C)n(-c2ccccc2NC(=O)c2c(C)nsc2Nc2cnc3ccccc3n2)n1` [Example 243, N-[2-(3,5-dimethyl-1H-pyrazol-1-yl)phenyl]-3-methyl-5-(quinoxalin-2-ylamino)-1,2-thiazole-4-carboxamide], the IC50 in experiment [1] is 1800 nM; in experiment [2] it was over 20000 nM.
Regarding `Cc1nsc(Nc2cnc3ccccc3n2)c1C(=O)Nc1ccc(NCCNC(=O)OC(C)(C)C)nc1` [Example 244, tert-butyl (2-{[5-({[3-methyl-5-(quinoxalin-2-ylamino)-1,2-thiazol-4-yl]carbonyl}amino)pyridin-2-yl]amino}ethyl)carbamate], the results for the IC50 in experiment [1] and in experiment [2] were 3700 nM and over 20000 nM, respectively.
On to `Cc1nsc(Nc2cnc3ccccc3n2)c1C(=O)Nc1ccc(Nc2ccc(F)c(F)c2)nc1` [Example 245, N-{6-[(3,4-difluorophenyl)amino]pyridin-3-yl}-3-methyl-5-(quinoxalin-2-ylamino)-1,2-thiazole-4-carboxamide], for which the results for the IC50 in experiment [1] and in experiment [2] were 1800 nM and over 20000 nM, respectively.
`Cc1nsc(Nc2ccc(C#N)cn2)c1C(=O)Nc1ccc(S(C)(=O)=O)cc1` [Example 246, 5-[(5-cyanopyridin-2-yl)amino]-3-methyl-N-[4-(methylsulfonyl)phenyl]-1,2-thiazole-4-carboxamide]: the IC50 is 330 nM in experiment [1] and over 20000 nM in experiment [2].
Take `CCN(CC)CCNC(=O)c1cccc(NC(=O)c2c(C)nsc2Nc2cnccn2)c1` [Example 247, N-(3-{[2-(diethylamino)ethyl]carbamoyl}phenyl)-3-methyl-5-(pyrazin-2-ylamino)-1,2-thiazole-4-carboxamide]: the IC50 in experiment [1] is 1200 nM; in experiment [2], over 20000 nM.
